Key:
[1] = test system: isolated mitochondria from ARPE-19-nic cells; experiment: Quantification of dye amounts in isolated mitochondria; assay type: cell-based, human; conditions: 100 nM, 30 minutes; t-test P < 0.0001
ARPE-19-nic cells [2] = experiment: De-esterification in cells (HPLC of cell extracts); assay type: in vitro ADME, human; conditions: confluent cells treated with 100 nM for 30 minutes and 2 hours
Method: For cell work, confluent ARPE-19-nic cells were treated with 100 nM dye solutions for 30 minutes and 2 hours at 37°C, 5% CO2 in a 12-well plate. After washing the cells with PBS three times, cells were extracted using cell scrappers with the aid of methanol. The cell suspension in methanol was sonicated in a water bath for 5 minutes and was centrifuged at 16,000 g for 15 minutes. The supernatant was transferred to an HPLC vial and methanol was evaporated under a stream of nitrogen. The sample was resuspended in 40 µL of methanol before injecting into the HPLC system. Twenty microliters of the samples were injected with an autosampler. Separation was conducted by 1.1 mL/min isocratic elution with a methanol (80%) and 10 mM sodium phosphate buffer (pH 5.8, 20%) mobile phase on a 250 × 4.6-mm (5 µm) C18 column (Pinnacle II; Restek, Bellefonte, PA) maintained at 40°C. The samples were monitored at an emission wavelength of 580 nm (λex = 550 nm) using a FLD detector and analyzed with Agilent Chemstation software.

[3] = Stability of dyes in media (HPLC); assay type: in vitro ADME; conditions: 100 nM in MEM-Nic + 1% FBS, 37°C, HPLC at 0 and 2 hours
Method: Fresh 100 nM RBBE solutions were prepared in MEM-Nic + 1% FBS with 0.2% Tween20. HPLC chromatograms were recorded immediately after making solutions and after incubation at 37°C for 2 hours to determine stability of the ester linkage in media.

ARPE-19-nic cells [4] = experiment: Co-localization with Mito-GFP (confocal and high-resolution live cell imaging); assay type: cell-based, human; conditions: 25 nM, 30 minutes; for cell penetration and association with mitochondria, high-resolution airy scan imaging: live cells
Method: ARPE-19-nic cells were seeded at 1.5 × 10^5 cells per well density in 8-well Millicell EZ slides with MEM-Nic + 1% FBS. After 24 hours (60%–70% confluency), cells were transfected with CellLight Mitochondria-GFP using manufacturer's recommended protocol. For co-localization experiments carried out at subconfluent conditions, media containing CellLight Mito-GFP were removed, washed with DPBS and cells were treated with 25 nM dye solutions prepared in MEM-Nic + 1% FBS at 37°C, 5% CO2. After 30 minutes, media containing dye solution was removed and cells were washed three times with DPBS. Cells were mounted with DPBS for confocal laser scanning microscope imaging. An 63× oil lens was used to image cells in green and red channels. For experiments carried out at confluent conditions, transfection was carried out at 60% to 70% confluency and cells were grown to 100% confluency. A 20× lens was used to generate images to compare staining efficiencies.
To analyze RBBE and its association with mitochondria, high-resolution live cell imaging was conducted using a Zeiss LSM880 inverted confocal microscope equipped with a GaAsP detector. All the images were obtained by using a 63× oil objective (30°C oil) in three channels (blue, green, and red) at room temperature. ARPE-19-nic cells were grown in Lab-Tek II chambered no 1.5 German coverslip system for 24 hours before treating with CellLight Mito-GFP overnight followed by a 30-minute treatment of 25 nM RBBE in growth media. After treating the cells with RBBE, cells were washed twice with PBS and nuclei were stained employing a Hoechst stain (1/2000 diluted from a 10 mg/mL stock solution in media) for 10 minutes at room temperature. Subsequently cells were washed twice with PBS and cells were imaged in phenol red free CO2 independent Leibovitz's (1×) media.

ARPE-19-nic cells [5] = experiment: Cellular uptake: intracellular and extracellular fluorescence quantification; assay type: cell-based, human
Method: Black clear bottomed Costar 96-well plates were pretreated with 0.039 mg/mL collagen I solution prepared in sterilized deionized water (50 µL per well) for 1 hour, aspirated and washed with 100 µL of DPBS. Confluent ARPE-19-nic cells were harvested and seeded at approximately 70,000 cells per well and grown until the cells reached 100% confluency. At the time of confluence (day 0), media were removed from the cells and treated with 100 µL of freshly made dye solutions in MEM-Nic + 1% FBS in amber Eppendorf tubes in dark. […] To determine intracellular and extracellular dye levels, cells were treated with 25 nM dye solutions for 2 hours. Extracellular levels were measured by transferring 75 µL of the media sitting on top of the cells to a new black, clear bottomed 96-well plate. To the transferred media, 25 µL of Qiagen RLT lysis buffer with 0.2% Tween20 were added and fluorescence was measured as mentioned elsewhere in this article. Intracellular amounts were determined by adding 100 µL of Qiagen RLT lysis buffer with 0.2% Tween20 to the cells that were washed thrice with DPBS. Fluorescence measurements were carried as described. For accumulation experiments, freshly prepared 25 nM dye solutions were added to cells multiple times (1×, 2×, or 3×) and incubated for 2 hours after each addition, removing media before each addition. After the incubation period, cells were washed three times with DPBS and fluorescence was measured from a plate reader. For retention experiments, cells were treated with 25 nM dye solutions for 2 hours at 37°C, 5% CO2, and fresh media was added every 24 hours after the removal of the dye solution.

ARPE-19-nic cells [6] = experiment: Accumulation experiment with repeated dye additions; assay type: cell-based, human; conditions: 25 nM added 1×, 2× or 3×, 2 hours each
Method: Black clear bottomed Costar 96-well plates were pretreated with 0.039 mg/mL collagen I solution prepared in sterilized deionized water (50 µL per well) for 1 hour, aspirated and washed with 100 µL of DPBS. Confluent ARPE-19-nic cells were harvested and seeded at approximately 70,000 cells per well and grown until the cells reached 100% confluency. At the time of confluence (day 0), media were removed from the cells and treated with 100 µL of freshly made dye solutions in MEM-Nic + 1% FBS in amber Eppendorf tubes in dark. After the appropriate incubation time, cells were washed thrice with DPBS, lysed with Qiagen RLT buffer with 0.2% Tween20, and fluorescence was recorded at λex/ λem = 552 nm/558 nm. […] Extracellular levels were measured by transferring 75 µL of the media sitting on top of the cells to a new black, clear bottomed 96-well plate. To the transferred media, 25 µL of Qiagen RLT lysis buffer with 0.2% Tween20 were added and fluorescence was measured as mentioned elsewhere in this article. Intracellular amounts were determined by adding 100 µL of Qiagen RLT lysis buffer with 0.2% Tween20 to the cells that were washed thrice with DPBS. Fluorescence measurements were carried as described. […] After the incubation period, cells were washed three times with DPBS and fluorescence was measured from a plate reader. […]

Compound	fluorescence from isolated mitochondria compared with RB-treated cells [1]	conversion into the parent form (de-esterification) inside cells (ARPE-19-nic cells [2])	stability of the ester in media [3]	cell penetration and association with mitochondria, high-resolution airy scan imaging (ARPE-19-nic cells [4])	cell permeability (ARPE-19-nic cells [5]; 25 nM)	intracellular versus extracellular location of dye (ARPE-19-nic cells [5]; 25 nM, 2 hours, fluorescence)	cell penetration after 24 hours incubation (ARPE-19-nic cells [5]; 24 hours incubation)	intracellular level after multiple doses (accumulation) (ARPE-19-nic cells [6])	co-localization with Mito-GFP labelled mitochondria (ARPE-19-nic cells [4]; confocal laser scanning microscopy)
CCCCOC(=O)c1ccccc1-c1c2ccc(=[N+](CC)CC)cc-2oc2cc(N(CC)CC)ccc12 [RBBE, Rhodamine B Butyl Ester]	increased fluorescence activity	did not convert into its parent form within 2 hours	stable in media up to 2 hours	able to effectively penetrate into the cells and associated with mitochondria					
rhodamine B [RB]				did not observe any RB	cell impermeable	primarily located in the extracellular space	not able to penetrate into the cells	showed no accumulation	not detected within the cells

Source: article PMC7409196, “Investigating the Effect of Esterification on Retinal Pigment Epithelial Uptake Using Rhodamine B Derivatives” (Translational Vision Science & Technology, 2020)
